Reference: the CombiSolv-Exp solvation set (Vermeire and Green 2021)

Assay: solvent given as SMILES

CC(=O)N1CCCC1
Conditions	solvation free energy, 298 K [kcal/mol]
in O	-9.8

CCCBr
Conditions	solvation free energy, 298 K [kcal/mol]
in C=CCCCCCCCCCCCCCC	-3.56
in ClC(Cl)(Cl)Cl	-4.17
in O	-0.56

CC(=O)Nc1ccc(O)cc1
Conditions	solvation free energy, 298 K [kcal/mol]
in C1CCOC1	-16.1
in C1COCCO1	-14.9
in CC(C)(C)O	-15.8
in CC(C)CO	-15.6
in CC(C)O	-16
in CC(C)OCCO	-16.1
in CC(O)COC(C)(C)C	-15.5
in CCC(C)O	-15.8
in CCCCCCCO	-15.3
in CCCCCCO	-15.5
in CCCCCO	-15.6
in CCCCO	-15.8
in CCCCOC(C)=O	-14.2
in CCCCOCCCC	-12
in CCCCOCCO	-15.8
in CCCO	-16.1
in CCCOCCO	-16.1
in CCOCCO	-16.4
in CN(C)C=O	-17.3
in CO	-16.6
in COC(C)(C)C	-13.4
in COC(C)=O	-14.8
in COC(C)CCO	-16
in ClCCl	-12.8
in Fc1ccccc1	-12.1
in O	-14.9

Cc1cccc(Nc2ccccc2C(=O)O)c1C
Conditions	solvation free energy, 298 K [kcal/mol]
in O	-6.78

COC(F)(F)C(Cl)Cl
Conditions	solvation free energy, 298 K [kcal/mol]
in O	-1.12

O=C(O)c1ccc(CCl)cc1
Conditions	solvation free energy, 298 K [kcal/mol]
in C=CCCCCCCCCCCCCCC	-8.7
in O	-9.22

CC(C)Nc1nc(Cl)nc(NC(C)C)n1
Conditions	solvation free energy, 298 K [kcal/mol]
in O	-9.55

ClCCBr
Conditions	solvation free energy, 298 K [kcal/mol]
in O	-1.95

CCF
Conditions	solvation free energy, 298 K [kcal/mol]
in C1CCOC1	-1.79
in CCCCCCC	-1.45
in CN1CCCC1=O	-1.86
in CN(C)C=O	-1.95
in O	0.41

COC(=O)c1ccc(O)cc1
Conditions	solvation free energy, 298 K [kcal/mol]
in C1CCOC1	-12.5
in C1COCCO1	-12.3
in CC(C)(C)O	-12.2
in CC(C)=O	-12.3
in CC(C)CO	-12
in CCC(C)O	-12.2
in CCCCCC	-7.42
in CCCCCCCCCCO	-11.4
in CCCCCCO	-11.9
in CCCCCO	-12
in CCCCO	-12.1
in CCCCOC(C)=O	-11.8
in CCCCOCCCC	-10.7
in CCCO	-12.2
in CCOC(C)=O	-11.9
in CCOCC	-11.7
in CNC=O	-12.7
in COC(C)(C)C	-11.8
in NC=O	-12.1
in O	-9.35

Clc1ccccc1
Conditions	solvation free energy, 298 K [kcal/mol]
in C1CCOC1	-6.04
in C1COCCO1	-5.78
in CC(=O)N(C)C	-5.01
in CC(C)(C)O	-5.03
in CC(C)=O	-5.65
in CC(C)CC(C)(C)C	-4.92
in CC(C)CCO	-5.12
in CC(C)CO	-5.09
in CC(C)O	-4.92
in CC(O)CO	-4.36
in CCC(C)O	-5.09
in CCCCCC	-5.21
in CCCCCCC	-5.17
in CCCCCCCCCC	-4.93
in CCCCCCCCCCCCCCCC	-4.94
in CCCCCO	-5.21
in CCCCCl	-5.59
in CCOC(C)=O	-5.66
in CN(C)C=O	-5.66
in CNC(C)=O	-5.17
in CO	-5.01
in COCCO	-5.23
in Cc1ccc(C)cc1	-5.52
in Cc1ccccc1C	-5.59
in ClCCl	-5.91
in N#Cc1ccccc1	-5.63
in NC=O	-3.58
in O	-1.14
in OCCO	-3.88

CCCCC(C)O (stereo unspecified)
Conditions	solvation free energy, 298 K [kcal/mol]
in O	-4.28

CC(=O)CCCC(C)C
Conditions	solvation free energy, 298 K [kcal/mol]
in NC=O	-4.76
in O	-3

COC(=O)OC
Conditions	solvation free energy, 298 K [kcal/mol]
in C1CCCCC1	-3.6
in CC(Cl)(Cl)Cl	-4.63
in CCC1CO1	-4.73
in CCCO	-3.72
in COC(C)(C)C	-4.24
in ClC(Cl)(Cl)Cl	-4.27
in ClCCCl	-5.04
in O	-3.53
in c1ccccc1	-4.66

Cc1cc(C)c2ccccc2c1
Conditions	solvation free energy, 298 K [kcal/mol]
in O	-2.47

c1cc2c3c(cccc3c1)CC2
Conditions	solvation free energy, 298 K [kcal/mol]
in C1CCOC1	-9.86
in C1COCCO1	-9.66
in CC(C)(C)O	-8.39
in CC(C)CC(C)(C)C	-8.67
in CC(C)CC(C)O	-8.46
in CC(C)CCCC(C)CCO	-8.69
in CC(C)CCO	-8.43
in CC(C)CO	-8.4
in CC(C)O	-8.38
in CC(C)OC(C)C	-9.11
in CCC(C)(C)O	-8.61
in CCC(C)O	-8.46
in CCCC(C)CO	-8.55
in CCCC(C)O	-8.52
in CCCCC(CC)CO	-8.66
in CCCCCC	-8.86
in CCCCCCC	-8.89
in CCCCCCCC	-8.9
in CCCCCCCCC=CCCCCCCCC(=O)OCC(COC(=O)CCCCCCCC=CCCCCCCCC)OC(=O)CCCCCCCC=CCCCCCCCC	-9.22
in CCCCCCCCCC	-8.88
in CCCCCCCCCCO	-8.8
in CCCCCCCCO	-8.61
in CCCCCCCO	-8.75
in CCCCCCO	-8.72
in CCCCCO	-8.68
in CCCCO	-8.6
in CCCCOC(C)=O	-9.43
in CCCCOCCCC	-9.18
in CCCO	-8.53
in CCO	-8.4
in CCOC(C)=O	-9.44
in CCOCC	-9.37
in CNC=O	-8.5
in CO	-8.21
in COC(C)(C)C	-9.25
in COC(C)=O	-9.32
in Cc1ccc(C)cc1	-9.57
in Cc1ccccc1C	-9.78
in ClC(Cl)(Cl)Cl	-9.63
in ClC(Cl)Cl	-9.84
in ClCCCl	-9.78
in O	-3.18

Clc1ccc(-c2cc(Cl)c(Cl)cc2Cl)cc1Cl
Conditions	solvation free energy, 298 K [kcal/mol]
in O	-3.36

OC1CCCCCC1
Conditions	solvation free energy, 298 K [kcal/mol]
in O	-5.48

O=Cc1cccnc1
Conditions	solvation free energy, 298 K [kcal/mol]
in O	-7.1

Cc1ccc(C2(C)CCCC2(C)C)cc1 (stereo unspecified)
Conditions	solvation free energy, 298 K [kcal/mol]
in O	-0.61

Cc1ccc(C(C)C)c(O)c1
Conditions	solvation free energy, 298 K [kcal/mol]
in CCCO	-10.2
in CCO	-10.3
in CO	-10.3
in O	-5.81

COC(=O)CC#N
Conditions	solvation free energy, 298 K [kcal/mol]
in O	-6.72

O=C(O)c1cc([N+](=O)[O-])cc([N+](=O)[O-])c1
Conditions	solvation free energy, 298 K [kcal/mol]
in C1CCOC1	-14.9
in C1COCCO1	-14.6
in CC(C)CCO	-13.8
in CC(C)CO	-13.7
in CC(C)O	-14.1
in CC(C)OC(C)C	-13
in CCC(C)O	-13.9
in CCCC(C)O	-13.9
in CCCCCCCCCCO	-13.6
in CCCCCCCCO	-13.7
in CCCCCCCO	-13.7
in CCCCCCO	-13.8
in CCCCCO	-13.9
in CCCCCOC(C)=O	-13.7
in CCCCO	-14
in CCCCOC(C)=O	-13.9
in CCCO	-14.2
in CCO	-14.4
in CCOC(C)=O	-14.2
in CCOCC	-13.9
in CN(C)C=O	-14.8
in O	-11.3

C=CCC
Conditions	solvation free energy, 298 K [kcal/mol]
in C1CCCCC1	-2.47
in CC#N	-1.86
in CC(C)(C)O	-2.03
in CC(C)CC(C)(C)C	-2.26
in CC(C)CCO	-1.99
in CC(C)CO	-1.98
in CC(C)O	-1.98
in CCC(C)(C)O	-2.1
in CCC(C)CO	-1.98
in CCC(C)O	-1.99
in CCC(O)CC	-2.01
in CCCC(C)O	-2.01
in CCCCC	-2.53
in CCCCCC	-2.49
in CCCCCCC	-2.48
in CCCCCCCC	-2.45
in CCCCCCCCC	-2.43
in CCCCCCCCCC	-2.42
in CCCCCO	-2.01
in CCCCO	-2.01
in CCCO	-2.01
in CN(C)C=O	-1.78
in CO	-1.83
in COC(C)=O	-2.21
in Cc1ccc(C)cc1	-2.33
in Cc1cccc(C)c1	-2.3
in Cc1ccccc1C	-2.31
in ClC(Cl)(Cl)Cl	-2.5
in O	1.36
in O=CN1CCOCC1	-1.28

[2H]O[2H]
Conditions	solvation free energy, 298 K [kcal/mol]
in C1CCCCC1	-0.54
in CCO	-5.24
in ClC(Cl)(Cl)Cl	-1.14
in S=C=S	-0.75

C1CCCCCC1
Conditions	solvation free energy, 298 K [kcal/mol]
in CC(C)O	-4.24
in CCCCCCCCCCCCCCCC	-4.83
in CCCO	-4.27
in CN1CCCC1=O	-3.99
in CN(C)C=O	-3.79
in CS(C)=O	-3.1
in N#CCCCCC#N	-3.34
in NCCO	-2.41
in O	0.79
in O=Cc1ccco1	-3.85
in OCc1ccco1	-3.74

COC(=O)c1ccc(OC)cc1
Conditions	solvation free energy, 298 K [kcal/mol]
in O	-5.33

CCCCCCCCCCCC(=O)OC
Conditions	solvation free energy, 298 K [kcal/mol]
in O	-2.91

CCCCc1ccccc1
Conditions	solvation free energy, 298 K [kcal/mol]
in C1CCOC1	-7.33
in CC#N	-6.1
in CC(C)O	-5.98
in CCC(C)=O	-6.73
in CCCCCCC	-6.58
in CCCCCCCCCCCCCCCC	-6.44
in CCO	-5.72
in CO	-5.81
in O	-0.37
in O=Cc1ccco1	-5.99
in OCCOCCO	-4.81

CCC(C)(C)C(=O)OC1CC(C)C=C2C=CC(C)C(CCC3CC(O)CC(=O)O3)C21 (stereo unspecified)
Conditions	solvation free energy, 298 K [kcal/mol]
in CC(=O)OC(C)C	-25
in CC(=O)OCC(C)C	-24.9
in CCC(C)O	-25.1
in CCC(C)OC(C)=O	-24.9
in CCCCCCCCO	-24.8
in CCCCCCO	-25
in CCCCCO	-25
in CCCCO	-25.1
in CCCCOC(C)=O	-25
in CCCO	-25.1
in CCCOC(C)=O	-25
in CCO	-25.1
in CCOC(C)=O	-25.1
in COC(C)=O	-25.1

CCCCCCC(C)O (stereo unspecified)
Conditions	solvation free energy, 298 K [kcal/mol]
in CCCCCCC	-5.86
in O	-3.77

CCCCN(CC)c1c([N+](=O)[O-])cc(C(F)(F)F)cc1[N+](=O)[O-]
Conditions	solvation free energy, 298 K [kcal/mol]
in O	-3.51
